{"source": "a melting point compilation (Tetko et al.; mined from patent text by program, amines drawn as free bases though some values may be those of a salt)", "data": [{"units": {"melting point": "°C"}, "values": [{"smiles": "COc1ccc(S(=O)(=O)N2C(=O)C(c3ccccc3OC)(N3C[C@H](OCC(=O)NC(C)(CO)CO)C[C@H]3C(=O)N(C)C)c3cc(Cl)ccc32)c(OC)c1", "note": "(some centres undefined)", "melting point": 154}, {"smiles": "COc1ccc2c(c1)C(C)(C)C(CO)O2", "note": "(centres undefined)", "melting point": "65 to 67"}, {"smiles": "COc1ccc(CCNC(=O)C2CCC2)cc1", "melting point": "118 to 120"}, {"smiles": "C[C@H]1CN(Cc2ccccc2)C[C@H]1NC(=O)OC(C)(C)C", "note": "(relative stereo)", "melting point": "132 to 133"}, {"smiles": "CCOC(=O)C1(C(=O)OCC)CCC2(CC1)c1cc(OCC)c(OCC)cc1CCN2C(=O)OCc1ccccc1", "melting point": "88.4 to 89.1"}, {"smiles": "O=c1c(Cl)c(Cl)cnn1CC(Cl)=CCl", "melting point": "93.7 to 94.6"}, {"smiles": "CNC(=O)N1N=C(c2ccc([N+](=O)[O-])c(C)c2)c2cc(Cl)ccc2C=C1C", "melting point": "196 to 198"}, {"smiles": "CN(N)c1cc(Cl)ncn1", "melting point": "182 to 185"}, {"smiles": "COc1ccc(CC(SC)C(N)=O)cc1C(=O)NCc1ccc(C(F)(F)F)cc1", "note": "(centres undefined)", "melting point": "152 to 154"}, {"smiles": "Cc1nc(C=O)c2n1-c1ccc(Cl)cc1C(c1ccccc1F)=NC2", "melting point": "190 to 192"}, {"smiles": "Nc1ncc(I)c(N)n1", "melting point": "212 to 214"}, {"smiles": "CCn1c(C)c(C2(N(c3ccccc3)c3ccccc3)OC(=O)c3nccnc32)c2ccccc21", "note": "(centres undefined)", "melting point": "98 to 100"}, {"smiles": "Clc1ccc2c(c1)C(c1ccccc1)=NCc1nnc(CCOCc3ccccc3)n1-2", "melting point": "115 to 117"}, {"smiles": "C[Si](C)(C)OC(Cn1ccnc1)(Cn1ccnc1)c1ccc(F)cc1F", "melting point": "134 to 136"}, {"smiles": "CC(C)C1CC(=O)C(C(=O)NS(=O)(=O)c2ccc(Cl)cc2)C(=O)C1", "note": "(centres undefined)", "melting point": "100 to 102"}, {"smiles": "CC(S(=O)(=O)c1ccc(OC(F)(F)F)cc1)S(=O)(=O)C(F)(F)F", "note": "(centres undefined)", "melting point": "77 to 80"}, {"smiles": "CC(C#Cc1ccc(Oc2c(F)cccc2F)o1)N(O)C(N)=O", "note": "(centres undefined)", "melting point": 161}, {"smiles": "CCCCc1ncc(CSc2ncccc2C(=O)O)n1Cc1ccc(C(=O)O)cc1", "melting point": "155 to 157"}, {"smiles": "N#Cc1cc(C(=O)CBr)ccc1N", "melting point": "162 to 165"}, {"smiles": "CC(=O)OC1CSC(Oc2cccnc2-c2ccco2)C(OC(C)=O)C1OC(C)=O", "note": "(centres undefined)", "melting point": 160}, {"smiles": "COc1cc2cc(Cc3ccccc3)c(C)cc2c(C(C)C)c1OC", "melting point": "159 to 161"}, {"smiles": "CCOCc1nc2c(N)nc3cc(OCc4ccc(C(F)(F)F)o4)ccc3c2n1CC(C)(C)NS(C)(=O)=O", "melting point": "186 to 188"}, {"smiles": "CCC(Oc1cc(OC)ccc1C(=O)c1ccc(OCc2nc(-c3ccccc3)oc2C)cc1)C(=O)O", "note": "(centres undefined)", "melting point": "161 to 162"}, {"smiles": "Cc1ccc(C)n1-c1ccc(C2(C#N)CCCC2)cc1", "melting point": "117 to 120"}, {"smiles": "CCCCc1nc(Cl)c(C(=O)OC(C)C)n1Cc1ccc2oc(-c3ccccc3-c3nnn[nH]3)c(Br)c2c1", "melting point": "105 to 106"}, {"smiles": "CCCCCCCCCCCCCC[C@@H]1CO[C@@H](CO)C1", "note": "(relative stereo)", "melting point": "27.1 to 27.7"}, {"smiles": "NC[C@@H]1CNc2cccc(-c3ccc(Cl)cc3Cl)c2O1", "melting point": 163}, {"smiles": "CN(Cc1sc2c(=O)c(C(=O)NCc3ccc(Cl)cc3)cn(C)c2c1COCC[Si](C)(C)C)CC(O)c1cc2ccccc2o1", "note": "(centres undefined)", "melting point": "157 to 159"}, {"smiles": "CC1CCC2(c3c[nH]cn3)Cc3ccccc3C12", "note": "(centres undefined)", "melting point": "168 to 172"}, {"smiles": "CC(C)(C)OC(=O)NCC1CCN(Cc2ccccc2)C1", "note": "(centres undefined)", "melting point": "51 to 54"}, {"smiles": "COC(=O)c1[nH]ccc1O", "melting point": "100 to 102"}, {"smiles": "O=C(NCCCN1CCC(c2ccccc2)(c2ccccc2)CC1)N1CCOCC1c1ccc(F)c(F)c1", "note": "(centres undefined)", "melting point": "71 to 74"}, {"smiles": "CN(C(=S)Nc1ccccc1)C1CCN(CCc2c[nH]c3ccccc23)CC1", "melting point": 194}, {"smiles": "CCOC(=O)c1c(O)c2cc(F)ccc2c(=O)n1CC(C)C", "melting point": "91 to 92"}, {"smiles": "CC(=O)OCC1OC(n2ncc(C#N)n2)C(OC(C)=O)C1OC(C)=O", "note": "(centres undefined)", "melting point": "77 to 79"}, {"smiles": "C[C@@H](O)[C@H]1C(=O)N([Si](C)(C)C(C)(C)C)[C@@H]1CC(=O)[Si](C)(C)C", "melting point": "82 to 84"}, {"smiles": "COc1cccc(Cc2nnc(NCCSCc3nccs3)[nH]c2=O)c1", "melting point": "128 to 129"}, {"smiles": "NC(=O)CCCSc1cccc(Br)n1", "melting point": "87 to 88"}, {"smiles": "CC(=O)NC1Cc2cc(CCN3CCN(c4nsc5ccccc45)CC3)ccc2C1(C)C", "note": "(centres undefined)", "melting point": "58 to 68"}, {"smiles": "CCCc1nc2c(N)nc3cc(O)ccc3c2s1", "melting point": "236 to 239"}, {"smiles": "O=C(Nc1cccc(C(F)(F)F)c1)c1cccnc1NCc1ccncc1", "melting point": "152 to 153"}, {"smiles": "CC(C)(C)C1CCc2oc(=O)c(-c3ccccc3)c(O)c2C1", "note": "(centres undefined)", "melting point": 195}, {"smiles": "CCc1ccc(-c2coc3c(C)c(C)c(N)c(C)c23)cc1", "melting point": "68 to 69"}, {"smiles": "Cc1nc(NC(=O)c2ccccc2)n(C)c(=O)c1CCN1CCC(=C(c2ccc(F)cc2)c2ccc(F)cc2)CC1", "melting point": 240}, {"smiles": "O=C(O)COc1ccc2cc(CNC(=O)c3cnn(-c4ccc(Cl)cc4)c3C(F)(F)F)ccc2c1", "melting point": "189 to 191"}, {"smiles": "CCC(=O)Nc1c(C#N)cnn1-c1c(Cl)cc(SC(F)(F)F)cc1Cl", "melting point": "153 to 156"}, {"smiles": "Cc1ncc2c(=O)n(C)c(=O)n(C)c2n1", "melting point": "113 to 115"}, {"smiles": "Nc1nc2ccccc2c2c1nc1n2C(C2CCOCC2)COC1", "note": "(centres undefined)", "melting point": "240 to 243"}, {"smiles": "COC(=O)CN(N)c1cc(C)cc(C)c1", "melting point": "56 to 58"}, {"smiles": "Cc1c(C(=O)N(CC(=O)O)c2ccc(N3CCC(O)CC3)c(C#N)c2)cnn1-c1ccc(F)cc1", "melting point": "155 to 158"}, {"smiles": "COc1ccc2c(c1OC)CC=C2c1c[nH]cn1", "melting point": 150}, {"smiles": "O=[N+]([O-])c1cnc(Cl)nc1", "melting point": "78 to 80"}, {"smiles": "CCOC(=O)c1cnn(-c2ccc(Cl)cc2Cl)c1C#N", "melting point": "79 to 81"}, {"smiles": "COC(=O)C(Oc1cccc2ccccc12)c1ccc(Oc2ccc(Cl)cc2)cc1", "note": "(centres undefined)", "melting point": "107 to 110"}, {"smiles": "COc1ccc(C(=[N+]=[N-])c2ccc(OC)cc2)cc1", "melting point": 85}, {"smiles": "O=C1NC(=S)NC(=O)C1=Cc1cccc2ccccc12", "melting point": 280}, {"smiles": "Cn1nc2c(cc1=O)CCc1cc(O)ccc1-2", "melting point": "> 300"}, {"smiles": "O=C(O)[C@@H]1CC(=Cc2ccccc2)CN1C(=O)OCc1ccccc1", "melting point": "142 to 150"}, {"smiles": "O=c1c2cc(F)c(N3CCCC3)cc2n(-c2cccc(F)c2)c(=O)n1O", "melting point": "239 to 241"}, {"smiles": "COC(=O)C1=C(C)NC(C)=C(C(=O)OC(C)(C)C)C1c1cccc(N)c1", "note": "(centres undefined)", "melting point": "85 to 90"}, {"smiles": "O=[N+]([O-])c1ccc2c(-n3ccnc3)nnc(NCc3ccc4c(c3)OCO4)c2c1", "melting point": "154 to 156"}, {"smiles": "COc1cc(CO)cc(OC)c1OCCO", "melting point": "26 to 28"}, {"smiles": "CC1=C(C(=O)OCCC#N)C(c2ccccc2Cl)C(c2nnco2)=C(C)N1", "note": "(centres undefined)", "melting point": "180 to 182"}, {"smiles": "Cc1cccc(NC(=O)NC2N=C(C3CCCCC3)c3cccc(C)c3N(CC(=O)C3CCCCC3)C2=O)c1", "note": "(centres undefined)", "melting point": "159 to 170"}, {"smiles": "CNCC1=NN=C(c2ccc([N+](=O)[O-])cc2)c2cc3c(cc2C1)OCO3", "melting point": "110 to 112"}, {"smiles": "Fc1ccc(OCCCCN2CCC(NC3=Nc4ccccc4CS3)CC2)cc1", "melting point": 133}, {"smiles": "CCN(CC)CCCN1CCC(O)(c2ccccc2)C(C(=O)c2ccccc2)C1", "note": "(centres undefined)", "melting point": "76 to 78"}, {"smiles": "COc1cc(C)c2c(c1O)CC(C)(c1ccccc1)C2=O", "note": "(centres undefined)", "melting point": "136 to 139"}, {"smiles": "c1nc2cc3c(cc2[nH]1)OCO3", "melting point": "155 to 156"}, {"smiles": "COC(=O)c1ccc2cc(-c3cc4c(c(C56CC7CC(CC(C7)C5)C6)c3)OCO4)ccc2c1", "melting point": "217 to 220"}, {"smiles": "COc1ccc(-c2c(Cl)c(CN3CCCC3=O)nc3sc4c(c23)CCN(Cc2ccccc2)C4)cc1OC", "melting point": "139 to 140"}, {"smiles": "CN1C(=O)c2ccccc2C[C@H]1C(=O)O", "melting point": "173 to 175"}, {"smiles": "COc1ccc(-c2cnc3nccn3c2)cc1OC1CC2CCC1C2", "note": "(centres undefined)", "melting point": 130}, {"smiles": "CC(=O)Nc1nc(C(F)(F)F)ns1", "melting point": 178}, {"smiles": "CS(=O)(=O)Oc1cc(=O)c(OCc2ccccc2)cn1Cc1ccccc1", "melting point": "115 to 117"}, {"smiles": "O=C1c2cccc([N+](=O)[O-])c2C(=O)N1CCCCN1C(=O)c2cccc([N+](=O)[O-])c2C1=O", "melting point": 245}, {"smiles": "Cc1ccc(C#Cc2ccc(NC(=O)OC(C)(C)C)c(N)c2)cc1", "melting point": 175}, {"smiles": "CC(=NOCCO)c1ccc(-c2ccccc2)nc1", "melting point": 76}, {"smiles": "CCC(CC)n1cc(C)nc(N2CCc3cc(OC)cc(C)c32)c1=O", "melting point": "138 to 140"}, {"smiles": "COc1cc(N)c(Cl)cc1C(=O)N[C@H]1CCN(CCCN2C(=O)c3ccccc3C2=O)C[C@H]1OC", "note": "(relative stereo)", "melting point": 208}, {"smiles": "CCCSc1ncc(C(Cc2ccccc2)C(=O)O)n1Cc1ccccc1Cl", "note": "(centres undefined)", "melting point": "60 to 63"}, {"smiles": "CCCCc1cn(Cc2ccc(-c3ccccc3C(=O)O)cc2)c2cc(C(=O)O)ccc2c1=O", "melting point": "> 260"}, {"smiles": "COC(=O)C(C)Nc1c([N+](=O)[O-])cnn1-c1c(Cl)cc(C(F)(F)F)cc1Cl", "note": "(centres undefined)", "melting point": "123 to 130"}, {"smiles": "CC(=O)N[C@H](COC(F)F)C(=O)NCc1ccc(F)cc1", "melting point": 163}, {"smiles": "CCOC(=O)c1cn(-c2cccnc2)nc1Br", "melting point": "94 to 95"}, {"smiles": "CCCCCC(O)CCC1CCC(=O)C1CCCCC=CC(=O)O", "note": "(centres undefined)", "melting point": "71 to 75"}, {"smiles": "O=c1[nH]c2c(I)c([N+](=O)[O-])c(Cl)c([N+](=O)[O-])c2[nH]c1=O", "melting point": "240 to 242"}, {"smiles": "CN(C)n1c(Br)nn(C(=O)Oc2ccccc2)c1=O", "melting point": 136}, {"smiles": "COc1ccc2c(c1)c(S(=O)(=O)c1ccccc1)cn2CCCl", "melting point": "148 to 150"}, {"smiles": "[N-]=[N+]=Cc1ccc([N+](=O)[O-])cc1", "melting point": "80 to 82"}, {"smiles": "Cc1ccc(-c2ccc(S(C)(=O)=O)cc2)n1-c1ccc(F)cc1", "melting point": "110 to 112"}, {"smiles": "N=C(N)NCCc1ccc(NC(=O)CC(c2ccccc2)(c2ccccc2)c2ccccc2)cc1", "melting point": "213 to 215"}, {"smiles": "CNC(=O)c1cc(=NS(=O)(=O)c2ccccc2)c2c(Cl)cc(Cl)cc2[nH]1", "melting point": "196 to 197"}, {"smiles": "Nc1nc(N)c(C=O)c(OCC2CCCCC2)n1", "melting point": "159 to 160"}, {"smiles": "COc1ccc2c(n1)c(CC[N+](=O)[O-])c1n2Cc2ccccc2-1", "melting point": "127 to 128"}, {"smiles": "COC(=O)c1c(C2=CC(=O)c3cccc(O)c3C2=O)c(C)n(C)c1C", "melting point": "178 to 180"}, {"smiles": "Fc1ccc(Cl)c2sc(CBr)cc12", "melting point": "89 to 90"}, {"smiles": "CCCc1cc(-c2ccc(Cl)cc2)nc2c(C(=O)Nc3cccc(S(=O)(=O)NC(C)(C)CO)c3)cnn12", "melting point": "207 to 208"}, {"smiles": "COc1cc(-c2ccc(C(F)(F)F)cc2)nc(SC)n1", "melting point": "82 to 84"}]}]}
